PMC3914206

Assays:
Assay type in all cases: binding
Conditions in all cases: Compound Concentration 10 µM
panel of 442 kinases [1] = molecular target: T1, panel of 442 kinases (Homo sapiens, UniProt O75676)
T1 construct: purchased KINOMEscan
Text: (§1) We assessed the selectivity of members of this scaffold using the KINOMEscan methodology across a near comprehensive panel of 442 kinases [[18,27]].

panel of 442 kinases [2] = molecular target: T2, panel of 442 kinases (Homo sapiens, UniProt P08069)
T2 construct: purchased KINOMEscan
Text: as §1

panel of 442 kinases [3] = molecular target: T3, panel of 442 kinases (Homo sapiens, UniProt P54646)
T3 construct: purchased KINOMEscan
Text: as §1

panel of 442 kinases [4] = molecular target: T4, panel of 442 kinases (Homo sapiens, UniProt P21802)
T4 construct: purchased KINOMEscan
Text: as §1

T2 sequence (P08069 31-1367): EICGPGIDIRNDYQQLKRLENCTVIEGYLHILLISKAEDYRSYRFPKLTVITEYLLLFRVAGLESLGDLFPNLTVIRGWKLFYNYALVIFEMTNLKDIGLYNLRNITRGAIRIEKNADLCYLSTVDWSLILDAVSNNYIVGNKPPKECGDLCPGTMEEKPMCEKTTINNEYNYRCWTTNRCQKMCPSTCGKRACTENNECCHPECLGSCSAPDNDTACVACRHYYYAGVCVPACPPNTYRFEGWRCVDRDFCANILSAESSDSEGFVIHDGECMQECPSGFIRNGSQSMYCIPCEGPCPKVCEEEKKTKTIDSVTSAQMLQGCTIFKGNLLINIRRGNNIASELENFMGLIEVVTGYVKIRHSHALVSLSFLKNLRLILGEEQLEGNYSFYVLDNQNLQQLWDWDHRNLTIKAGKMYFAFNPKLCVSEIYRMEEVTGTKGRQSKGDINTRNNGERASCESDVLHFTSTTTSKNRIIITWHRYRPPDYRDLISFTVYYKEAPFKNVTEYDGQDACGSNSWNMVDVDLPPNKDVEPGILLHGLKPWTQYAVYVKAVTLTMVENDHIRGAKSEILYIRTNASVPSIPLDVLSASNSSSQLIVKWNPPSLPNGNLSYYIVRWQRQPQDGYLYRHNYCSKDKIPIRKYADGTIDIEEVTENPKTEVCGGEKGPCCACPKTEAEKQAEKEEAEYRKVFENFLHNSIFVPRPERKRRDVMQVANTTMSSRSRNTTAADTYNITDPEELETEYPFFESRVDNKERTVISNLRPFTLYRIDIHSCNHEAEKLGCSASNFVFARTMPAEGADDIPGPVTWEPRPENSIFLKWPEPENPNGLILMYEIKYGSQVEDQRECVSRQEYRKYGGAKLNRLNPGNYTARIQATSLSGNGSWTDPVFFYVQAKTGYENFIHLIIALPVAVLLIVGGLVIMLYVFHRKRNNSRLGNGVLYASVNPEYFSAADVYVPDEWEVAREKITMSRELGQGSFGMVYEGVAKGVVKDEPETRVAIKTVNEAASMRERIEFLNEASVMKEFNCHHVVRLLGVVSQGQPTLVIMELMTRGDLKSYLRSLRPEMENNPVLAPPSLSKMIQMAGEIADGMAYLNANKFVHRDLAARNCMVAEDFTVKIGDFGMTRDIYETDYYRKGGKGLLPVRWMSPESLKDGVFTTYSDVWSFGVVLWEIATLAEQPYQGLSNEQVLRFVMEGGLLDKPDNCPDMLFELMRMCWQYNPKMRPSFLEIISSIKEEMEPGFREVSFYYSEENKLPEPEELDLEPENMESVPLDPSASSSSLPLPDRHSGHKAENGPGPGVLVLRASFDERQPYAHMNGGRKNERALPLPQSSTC
T3 sequence (P54646 whole entry): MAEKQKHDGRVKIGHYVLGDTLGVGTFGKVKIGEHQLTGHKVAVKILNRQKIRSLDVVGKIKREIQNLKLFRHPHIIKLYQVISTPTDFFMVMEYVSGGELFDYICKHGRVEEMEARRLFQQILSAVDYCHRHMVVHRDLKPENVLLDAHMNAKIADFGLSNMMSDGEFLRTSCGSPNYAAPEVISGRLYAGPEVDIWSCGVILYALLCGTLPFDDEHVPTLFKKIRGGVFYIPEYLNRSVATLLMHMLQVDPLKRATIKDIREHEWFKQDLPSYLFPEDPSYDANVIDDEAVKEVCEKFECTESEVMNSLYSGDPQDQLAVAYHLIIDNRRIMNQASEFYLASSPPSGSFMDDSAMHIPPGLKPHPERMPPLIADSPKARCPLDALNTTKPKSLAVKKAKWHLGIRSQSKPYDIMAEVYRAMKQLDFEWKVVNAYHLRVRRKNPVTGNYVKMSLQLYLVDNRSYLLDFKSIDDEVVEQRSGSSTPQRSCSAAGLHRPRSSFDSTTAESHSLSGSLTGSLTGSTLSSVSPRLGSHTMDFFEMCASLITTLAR
T4 sequence (P21802 22-821): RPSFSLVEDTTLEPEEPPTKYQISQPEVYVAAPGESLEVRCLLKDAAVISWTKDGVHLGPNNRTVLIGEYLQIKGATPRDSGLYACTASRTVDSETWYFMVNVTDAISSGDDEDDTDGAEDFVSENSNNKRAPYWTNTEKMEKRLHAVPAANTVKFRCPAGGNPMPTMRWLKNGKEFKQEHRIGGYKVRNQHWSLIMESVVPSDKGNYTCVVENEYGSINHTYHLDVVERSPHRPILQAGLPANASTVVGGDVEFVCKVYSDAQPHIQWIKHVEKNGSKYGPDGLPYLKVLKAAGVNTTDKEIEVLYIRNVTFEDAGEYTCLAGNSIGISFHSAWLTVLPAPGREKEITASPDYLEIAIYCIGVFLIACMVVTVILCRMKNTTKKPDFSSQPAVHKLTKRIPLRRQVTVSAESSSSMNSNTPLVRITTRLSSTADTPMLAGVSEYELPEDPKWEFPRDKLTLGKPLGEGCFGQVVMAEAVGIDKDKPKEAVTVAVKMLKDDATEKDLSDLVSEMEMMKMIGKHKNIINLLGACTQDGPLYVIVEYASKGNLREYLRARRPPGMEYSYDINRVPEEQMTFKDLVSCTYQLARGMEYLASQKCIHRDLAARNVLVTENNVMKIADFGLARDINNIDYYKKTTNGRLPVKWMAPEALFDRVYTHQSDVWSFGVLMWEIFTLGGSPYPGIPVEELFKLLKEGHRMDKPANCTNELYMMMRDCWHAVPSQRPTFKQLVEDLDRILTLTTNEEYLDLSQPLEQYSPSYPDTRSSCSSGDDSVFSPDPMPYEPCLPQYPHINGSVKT
T1 sequence (O75676 whole entry): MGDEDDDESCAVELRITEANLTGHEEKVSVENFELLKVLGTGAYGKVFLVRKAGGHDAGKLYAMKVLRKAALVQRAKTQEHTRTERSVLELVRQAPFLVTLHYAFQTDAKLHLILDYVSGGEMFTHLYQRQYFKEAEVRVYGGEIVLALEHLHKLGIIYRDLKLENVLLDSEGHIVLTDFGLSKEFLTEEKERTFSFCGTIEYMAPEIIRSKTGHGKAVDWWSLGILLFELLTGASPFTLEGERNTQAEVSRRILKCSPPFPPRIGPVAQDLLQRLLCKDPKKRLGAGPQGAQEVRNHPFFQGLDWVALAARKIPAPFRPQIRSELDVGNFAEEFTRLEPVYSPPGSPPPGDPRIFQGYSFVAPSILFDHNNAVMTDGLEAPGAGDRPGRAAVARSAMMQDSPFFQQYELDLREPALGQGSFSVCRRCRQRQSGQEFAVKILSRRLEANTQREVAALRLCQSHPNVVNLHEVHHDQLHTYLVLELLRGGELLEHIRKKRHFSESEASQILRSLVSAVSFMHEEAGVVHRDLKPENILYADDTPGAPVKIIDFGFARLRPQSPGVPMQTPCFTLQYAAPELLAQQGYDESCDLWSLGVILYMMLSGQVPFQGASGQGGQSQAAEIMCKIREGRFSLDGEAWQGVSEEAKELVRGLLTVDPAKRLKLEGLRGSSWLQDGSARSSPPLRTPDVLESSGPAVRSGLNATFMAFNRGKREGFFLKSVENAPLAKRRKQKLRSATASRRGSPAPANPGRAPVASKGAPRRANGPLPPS

Row | SMILES | KINOMEscan: RPS6KA4(Kin.Dom.1-N-terminal) (panel of 442 kinases [1]) | KINOMEscan: RPS6KA4(Kin.Dom.2-C-terminal) (panel of 442 kinases [1]) | KINOMEscan: IGF1R (panel of 442 kinases [2]) | KINOMEscan: AMPK-alpha2 (panel of 442 kinases [3]) | KINOMEscan: FGFR2 (panel of 442 kinases [4])
1 | CCOc1cc(C(=O)N2CCC(N3CCN(C)CC3)CC2)ccc1Nc1ncc2c(n1)N(C1CCCC1)c1ccccc1C(=O)N2C [Compound 26] | 100 | 100 | 100 | 100 | 100
2 | COc1cc(C(=O)N2CCC(N3CCN(C)CC3)CC2)ccc1Nc1ncc2c(n1)N1CCc3cccc(c31)C(=O)N2C [Compound 24] |  | 0.65 |  |  | 83
3 | COc1cc(C(=O)N2CCC(N3CCN(C)CC3)CC2)ccc1Nc1ncc2c(n1)N(C)c1ccccc1C(=O)N2C [15 (LRRK2-IN-1)] | 100 | 46 | 96 | 66 | 95
4 | COc1cc(C(=O)N2CCC(N3CCN(C)CC3)CC2)ccc1Nc1ncc2c(n1)N(C1CCCC1)c1ccccc1C(=O)N2C [Compound 25, 11-cyclopentyl-2-((2-methoxy-4-(4-(4-methylpiperazin-1-yl)piperidine-1-carbonyl)phenyl)amino)-5-methyl-5H-benzo[e]pyrimido[5,4-b][1,4]diazepin-6(11H)-one] | 100 | 100 | 89 | 76 | 100
